According to patent US12637430B2, “Interleukin-17 (IL-17) inhibitors” (priority 2020, dated 2026):
pIC50: −log10 of the molar value. Where two headings read alike, the source gives them in different places.

Key:
human IL-17A = target: T1, human IL-17A (Homo sapiens, UniProt Q16552); experiment: IL-17A enzyme-linked immunosorbent assay (competitive ELISA, IL-17A/IL-17R binding)
T1 construct: purchased Sino Biological Inc. 12047-H07B
T1 sequence (Q16552 24-155): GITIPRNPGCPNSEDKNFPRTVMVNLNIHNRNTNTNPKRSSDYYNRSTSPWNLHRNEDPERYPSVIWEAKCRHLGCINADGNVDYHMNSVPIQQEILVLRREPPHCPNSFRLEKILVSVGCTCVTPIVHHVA
Experimental: The inhibition of receptor-ligand binding by human IL-17A inhibitors was quantified by competitive ELISA. 0.2 μg/mL of IL-17A (Sino Biological Inc. Cat #12047-H07B) was added in a 96-well plate at 100 μl per well for incubation for 30 min under 37° C. The 96-well plate was washed with PBST (PBS, 0.05% Tween-20) at 200 μl per well for 4 times, and then added with 200 μl of 5% skim milk and placed on a shaker for incubation at 25° C. for 30 min. The compound to be tested was prepared at 100× concentration ranging from 0.003 μM to 30 μM. After washed with PBST (PBS, 0.05% Tween-20) 4 times, the plate was added with 89 μl of PBST and 1 μl of the compound to be tested at 100× concentration followed by uniformly mixing and pre-incubation at 25° C. for 10 min. Then the plate was added with 10 μl of 16 nM IL-17R, and incubated on a shaker at 25° C. for 30 min. After washed for 4 times, the plate was added with 100 μl of anti-Fc-tag horseradish peroxidase (HRP)-conjugated antibody, and incubated on a shaker at 25° C. for 30 min. After washed 4 times, the plate was added with 100 μl of 3,3′, 5,5″-tetramethylbenzidine (TMB) substrate solution, and incubated at 25° C. in the dark. Then the plate was added with 20% HCl, followed by detection of the light absorption value at a wavelength of 450 nm by a microplate reader. The compounds prepared in the above examples were tested for human IL-17A inhibitory activity according to the above method.

human IL-17A protein = target: T2, human IL-17A protein (Homo sapiens, UniProt Q16552); experiment: Inhibition of chemokine GROα/CXCL1 generation induced by human IL-17A protein in HT-29 cell; format: cell-based
T2 construct: purchased R&D 317-ILB
T2 sequence (Q16552 20-155 limits assumed): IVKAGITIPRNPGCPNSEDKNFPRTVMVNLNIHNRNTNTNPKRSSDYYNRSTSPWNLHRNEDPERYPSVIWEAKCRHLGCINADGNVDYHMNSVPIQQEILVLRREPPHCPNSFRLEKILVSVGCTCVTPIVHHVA
Experimental: HT-29 (Zhongyuan Gongchuang Technology Co., Ltd. of Chengdu, Sichuan) was added to a 96-well plate at 5×10^4 cells/well, and cultured overnight in a incubator at 37° C. A mixture of 30 ng/mL of human IL-17A protein (R&D, #317-ILB) and IL-17A small molecule inhibitors with gradient concentrations or 0.3 μg/mL of positive control IL-17A antibody (R&D, #AF-317-NA) was incubated at 37° C. for 1 h, and then added to the above-mentioned 96-well plate, and incubated with HT-29 cells at 37° C. for 48 hours. Then the GROα level in the cell culture supernatant was detected by an ELISA kit (Cisbio, #62HCXC1PEG) of the GROα.
According to the methods described in Experimental Examples 1 and 2, the compounds prepared in the above-mentioned examples were subjected to the experiment on inhibition of chemokine GROα/CXCL1 generation induced by human IL-17A protein in HT-29 cell.

[1] = Pharmacokinetic properties in mice (intravenous injection/oral gavage); format: in vivo; settings: oral bioavailability
Experimental: (§1) In order to investigate the pharmacokinetic properties of the compound in rats, 3 rats were administered with the compounds at corresponding doses by intravenous injection/oral gavage, respectively. The anticoagulated whole blood of the rats were collected and the plasma was separated at 5 min, 15 min, 30 min, 1 h, 2 h, 4 h, 8 h, 24 h after administrated. In order to investigate the pharmacokinetic properties of the compound in mice, 6 mice were administered with the compound at the corresponding dose by intravenous injection/oral gavage. The mice administered by each route were divided into A group and B group. The anticoagulated whole blood was collected from the mice in group A at 5 min, 30 min, 2 h, and 8 h after the administration, and the anticoagulated whole blood was collected from the mice in group B at 15 min, 1 h, 4 h, and 24 h after the administration, and plasma was separated. In order to investigate the pharmacokinetic properties of dogs, two groups of 4 beagle dogs (2 males+2 females) were administered with the compound at corresponding doses by intravenous injection/oral gavage. The anticoagulated whole blood of each dog was collected, and the plasma was separated at 2 h, 4 h, 8 h, 12 h, 24 h, 36 h after the administration.
(§2) Plasma concentrations of compounds were determined by standard curve calibration by LC-MS. […]

[2] = Pharmacokinetic properties in rats (intravenous injection/oral gavage); format: in vivo; settings: oral bioavailability
Experimental: as §1, §2

[3] = Pharmacokinetic properties in dogs (intravenous injection/oral gavage); format: in vivo; settings: oral bioavailability, beagle dogs
Experimental: as §1, §2

[4] = tested on: cytochrome P450 1A2 (CYP1A2); format: in vitro ADME; settings: human hepatocytes
Experimental: In order to evaluate the induction of CYP enzymes in human hepatocytes by the compounds prepared in the above examples at 10 μM, Omeprazole (positive control) and the compound prepared in Example 32 (control compound 2) disclosed in patent application. WO2020/127685A1 were used as controls.

[5] = tested on: imiquimod-induced psoriasis mouse model; experiment: Pharmacodynamic test on an imiquimod cream-induced psoriasis model in mice; format: in vivo, C57BL/6N mouse
Experimental: Each 10-week-old female C57 black 6 (C57BL/6N) mouse was shaved to approximately 2.5×4 cm on the back, which the imiquimod (IMQ, Imiquimod) cream continuously applies from the day 1-4, so as to establish a psoriasis model. Each mouse was administrated with the compound 51 prepared in this application by gavage (3, 10, 30 mg/kg) once a day, and administrated with IL-17A antibody solution by intraperitoneal injection (Ab, 2 mg/kg) every other day, or administrated with dexamethasone solution by intraperitoneal injection (10 mg/kg) once a day. […] On day 1 and day 5 of the experiment, the skin thickness of the mice was measured to investigate the skin thickening induced by IMQ.
On day 5 of the experiment, the skins of mice in each group were collected, the mRNA expression level of IL6 was detected by quantitative reverse transcription polymerase chain reaction (RT-qPCR) test. […] On day 5 of the experiment, the plasma of mice in each group was collected, and the IL6 protein level was measured.
On day 5 of the model, the skin samples were collected from the back of each mouse. The samples were fixed in 4% paraformaldehyde, and stained with hematoxylin-eosin (HE) to investigate the protective effect of compound 51 on skin pathological damage.

SMILES	pIC50 (human IL-17A)	pIC50 (human IL-17A protein)	F % (Mice) [1] [%]	F % (Rats) [2] [%]	F %(Dogs) [3] [%]	Note 1A2 (CYP1A2 induction) ([4]; 10 μM)	mRNA Expression level % of the positive control 1A2 ([4]; 10 μM) [%]	mRNA Expression level Fold of induction 1A2 ([4]; 10 μM)	Note 1A2 (CYP1A2 induction) ([4]; 10 μM, listed as compound 51)	skin thickening induced by IMQ (skin thickness day 1 and day 5) ([5]; compound 51 gavage 3, 10, 30 mg/kg once a day, antibody i.p. 2 mg/kg every other day, FIG. 1B)	skin pathological damage (HE staining) ([5]; day 5, 3, 10 and 30 mg/kg, FIGS. 2A-G)	mRNA expression level of IL6 in skin (RT-qPCR) ([5]; day 5, gavage 3, 10, 30 mg/kg, FIG. 1C)	IL6 protein level in plasma ([5]; day 5, gavage 3, 10, 30 mg/kg, FIG. 1D)	AUC of the psoriasis area and severity index (PASI) scoring curve (skin inflammation) ([5]; gavage 3, 10, 30 mg/kg once a day, FIG. 1A)	mRNA Expression level Fold of induction 1A2 ([4]; concentration 25/750 μM (positive control))
Cc1n[nH]c(C)c1-c1ncc(NC(=O)[C@@H](NC(=O)c2ccnn2C(C)C)C(C2CC2)C2CC2)cc1F [Compound 51]	7.38	6.65	56	46	58	Non-	2.20	1.26	no inducing effect	reversed the skin thickening caused by IMQ at different levels	may inhibit the infiltration and damage of skin inflammatory cells induced by IMQ at different levels	dependently reversed the up-regulation of IL6 expression level	dependently inhibited the increase of IL6 protein level in the plasma	reduced the level of skin inflammation induced by IMQ	–
COc1ccc2[nH]c([S+]([O-])Cc3ncc(C)c(OC)c3C)nc2c1 (stereo not drawn) [Omeprazole, reference compound]	–	–	–	–	–	–	–	–	–	–	–	–	–	–	12.8
